Assay [1] deals with Mus musculus. The assay is described as follows: Anxiolytic activity in ddY mouse assessed as time spent in open-sided arms at 1 mg/kg, po administered once daily for 1 day by elevated plus-maze test. The assay is classed as functional.
Assay [2] concerns Mus musculus. Put plainly: Anxiolytic activity in ddY mouse assessed as time spent in open-sided arms at 0.49 mg/kg, po administered once daily for 7 days by elevated plus-maze test. It counts as functional, organism-based. Also on record: dose 0.49 mg/kg.
For assay [3], the system named is Mus musculus. Put plainly: Anxiolytic activity in ddY mouse assessed as time spent in open-sided arms at 0.19 mg/kg, po administered once daily for 7 days by elevated plus-maze test. The assay is classed as functional.
Assay [4] deals with Mus musculus. The assay is described as follows: Anxiolytic activity in ddY mouse assessed as time spent in open-sided arms at 0.19 mg/kg, po administered once daily for 5 days by elevated plus-maze test. The assay is classed as functional.
For assay [5], the system named is Mus musculus. The assay is described as follows: Anxiolytic activity in ddY mouse assessed as time spent in open-sided arms at 0.19 mg/kg, po administered once daily for 14 days by elevated plus-maze test. The assay is classed as functional.
Assay [6] deals with Mus musculus. The assay is described as follows: Anxiolytic activity in ddY mouse assessed as time spent in open-sided arms at 0.19 mg/kg, po administered once daily for 3 days by elevated plus-maze test. The assay is classed as functional.
In assay [7] the test system is Mus musculus. The assay is described as follows: Anxiolytic activity in ddY mouse assessed as time spent in open-sided arms at 0.19 mg/kg, po administered once daily for 1 day by elevated plus-maze test. It counts as functional.

Activity calls are given as the source filed them. The rule behind the calls is not given here.

`CN1C(=O)CN=C(c2ccccc2)c2cc(Cl)ccc21` [DIAZEPAM]: the Time in assay [1] is 22.1 s.
With `C=CCc1ccc(O)c(-c2ccc(O)c(CC=C)c2)c1` [HONOKIOL], the outcome in assay [2] was Active. For the same molecule, the Time in assay [3] is on record as 10.9 s; in assay [4], 9.1 s; in assay [5], 12.3 s; in assay [6], 4 s; in assay [7], 3.7 s.
On to `C=CCc1ccc(O)c(-c2cc(CC=C)ccc2O)c1`, for which the outcome in assay [2] was Active.

The record behind these values is ChEMBL document CHEMBL1159198, “Identification of magnolol and honokiol as anxiolytic agents in extracts of saiboku-to, an oriental herbal medicine” (1998).
